ChEMBL document CHEMBL1201862, “PubChem BioAssay data set” (2004)
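Step 1: Grow cells in 96-well plates. Step 2: Expose to compound for 48 hours at 5 concentrations. Step 3: Interpolate endpoints linearly; if unreached, use highest concentration. GI50: concentration for 50% inhibition of growth.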 Active and inactive are the calls of the source. Cut-off read from the data, not from the text of the source: active = GI50 up to about 1.1 µM and inactive = higher.

Tests used:
Assay in all cases: NCI anticancer screen, dose series, 48 h
[1] = tested on: SK-MEL-28
[2] = tested on: ACHN
[3] = tested on: HL-60
[4] = tested on: SN12C
[5] = tested on: Hs-578T
[6] = tested on: NCI/ADR-RES
[7] = tested on: M14
[8] = tested on: DU-145
[9] = tested on: UO-31
[10] = tested on: A498
[11] = tested on: SR
[12] = tested on: SF-295
[13] = tested on: MDA-N
[14] = tested on: K562
[15] = tested on: SF-268
[16] = tested on: NCI-H460
[17] = tested on: KM12
[18] = tested on: U-251
[19] = tested on: CCRF-CEM
[20] = tested on: BT-549
[21] = tested on: EKVX
[22] = tested on: NCI-H226
[23] = tested on: HCT-15
[24] = tested on: COLO 205
[25] = tested on: T47D
[26] = tested on: CAKI-1
[27] = tested on: SK-MEL-5
[28] = tested on: SK-OV-3
[29] = tested on: SNB-19
[30] = tested on: UACC-257
[31] = tested on: OVCAR-5
[32] = tested on: HOP-62
[33] = tested on: SW-620
[34] = tested on: MDA-MB-231
[35] = tested on: SK-MEL-2
[36] = tested on: HCT-116
[37] = tested on: OVCAR-3
[38] = tested on: OVCAR-8
[39] = tested on: HT-29
[40] = tested on: UACC-62
[41] = tested on: IGROV-1
[42] = tested on: HCC 2998
[43] = tested on: PC-3
[44] = tested on: TK-10
[45] = tested on: NCI-H23
[46] = tested on: Malme-3M
[47] = tested on: MOLT-4
[48] = tested on: SNB-75
[49] = tested on: NCI-H522
[50] = tested on: MCF7
[51] = tested on: OVCAR-4
[52] = tested on: RPMI-8226
[53] = tested on: SF-539
[54] = tested on: RXF 393
[55] = tested on: HOP-92
[56] = tested on: A549
[57] = tested on: LOX IMVI
[58] = tested on: 786-0
[59] = tested on: MDA-MB-435

Measured: GI50

O=C(O)Cc1ccc(N2N=C(c3ccccc3)CC2=O)cc1
inactive: [1] > 100 µM | [2] > 100 µM | [3] > 100 µM | [4] > 100 µM | [5] > 100 µM | [6] > 100 µM | [7] > 100 µM | [8] > 100 µM | [9] > 100 µM | [10] > 100 µM | [11] > 100 µM | [12] > 100 µM | [13] > 100 µM | [14] > 100 µM | [15] > 100 µM | [16] > 100 µM | [17] > 100 µM | [18] > 100 µM | [19] > 100 µM | [20] > 100 µM | [21] > 100 µM | [22] > 100 µM | [24] > 100 µM | [25] > 100 µM | [26] > 100 µM | [27] > 100 µM | [28] > 100 µM | [29] > 100 µM | [30] > 100 µM | [31] > 100 µM | [32] > 100 µM | [33] > 100 µM | [34] > 100 µM | [35] 23.2 µM | [36] > 100 µM | [37] > 100 µM | [38] > 100 µM | [39] > 100 µM | [40] > 100 µM | [41] > 100 µM | [42] > 100 µM | [43] > 100 µM | [44] > 100 µM | [45] > 100 µM | [46] 18.6 µM | [47] > 100 µM | [48] > 100 µM | [49] > 100 µM | [50] > 100 µM | [51] > 100 µM
> 100 µM: [23]

CC(C)/C(Cl)=N\OC(=O)Nc1cccc(F)c1
15.8 µM: [23]
active: [7] 0.933 µM
inactive: [1] 16.2 µM | [2] 14.6 µM | [3] 1.96 µM | [4] 16.5 µM | [5] 26.5 µM | [6] 17.1 µM | [8] 18.4 µM | [9] 18.6 µM | [10] 12.9 µM | [11] 2.35 µM | [12] 32.9 µM | [13] 15.4 µM | [14] 2.19 µM | [15] 19.6 µM | [16] 27.4 µM | [17] 12.1 µM | [18] 17.2 µM | [19] 1.9 µM | [20] 2.66 µM | [52] 4.34 µM | [21] 16.7 µM | [22] 17.2 µM | [24] 2.44 µM | [25] 24.8 µM | [26] 16 µM | [27] 15 µM | [53] 18.6 µM | [28] 19.7 µM | [29] > 100 µM | [30] 15.8 µM | [31] 17.7 µM | [32] > 31.6 µM | [33] 2.23 µM | [34] 16.9 µM | [35] 7.76 µM | [36] 16.1 µM | [37] 17 µM | [38] 17 µM | [39] 18.3 µM | [40] 20.4 µM | [54] 17.1 µM | [41] 18.6 µM | [42] 19.3 µM | [55] 1.46 µM | [43] 16.4 µM | [44] 14.8 µM | [45] 15.9 µM | [56] 17.5 µM | [57] 2.14 µM | [46] 6.24 µM | [47] 2.28 µM | [48] 22.6 µM | [58] 16 µM | [49] 1.49 µM | [50] 11 µM | [51] 11.7 µM

CCN(CC)CCOc1ccccc1/C=C/c1noc2ccccc12
active: [35] 0.736 µM | [46] 1.01 µM
10.5 µM: [23]
inactive: [1] 7.73 µM | [2] 12.7 µM | [3] 7.76 µM | [4] 11.5 µM | [5] 15.7 µM | [6] 19 µM | [7] 2.54 µM | [8] 15.7 µM | [9] 6.11 µM | [10] 17.2 µM | [11] 11.7 µM | [12] 16.2 µM | [13] 11.8 µM | [14] 9.29 µM | [15] 17.2 µM | [16] 11.6 µM | [17] 16.4 µM | [19] 15.2 µM | [20] 16.3 µM | [21] 15.2 µM | [22] 16.3 µM | [24] 6.21 µM | [25] 12.6 µM | [26] 12.8 µM | [27] 3.79 µM | [53] 16 µM | [28] 20 µM | [29] 13.6 µM | [30] 3.95 µM | [31] 12.5 µM | [32] 14.4 µM | [33] 10.2 µM | [34] 11.4 µM | [36] 6.22 µM | [37] 14.7 µM | [38] 12.2 µM | [39] 2.27 µM | [40] 10.6 µM | [54] 2.75 µM | [41] 9.91 µM | [42] 5.79 µM | [43] 4.89 µM | [44] 15 µM | [45] 13.9 µM | [47] 12.1 µM | [48] 10.4 µM | [58] 13.6 µM | [49] 8.17 µM | [50] 14.2 µM | [51] 24.5 µM

COc1cc(C2S/C(=C/c3ccccc3)C(=O)N2c2cccc(Cl)c2)cc(OC)c1OC (stereo not given)
34.8 µM: [23]
inactive: [1] 78.3 µM | [2] 30.6 µM | [3] 30.9 µM | [4] 55.2 µM | [5] 86.7 µM | [6] 34.5 µM | [7] 62.8 µM | [8] 23.1 µM | [9] 23.7 µM | [10] 69.7 µM | [11] 19.4 µM | [12] 33.7 µM | [13] 30.2 µM | [14] 21.1 µM | [15] 77.1 µM | [16] 34.4 µM | [17] 27.4 µM | [18] 57.7 µM | [19] 25.6 µM | [20] 28.6 µM | [52] 24.8 µM | [21] 37.2 µM | [22] 93.5 µM | [24] > 100 µM | [26] 30.8 µM | [27] 35.7 µM | [53] 31 µM | [28] > 100 µM | [29] 42.9 µM | [30] 23.6 µM | [31] > 100 µM | [33] 46 µM | [34] > 100 µM | [35] 62.7 µM | [36] 36.3 µM | [59] 22.2 µM | [37] 30.1 µM | [38] 57.8 µM | [39] 44.9 µM | [40] 9.4 µM | [41] 56.9 µM | [42] 46.1 µM | [55] 96.4 µM | [43] 51.8 µM | [44] > 100 µM | [45] 94.4 µM | [56] 78.3 µM | [57] 21.1 µM | [47] 22 µM | [58] 33.3 µM | [49] 18.2 µM | [50] 34 µM | [51] 29.8 µM

CCOP(=O)(O)CC1OC(CO)C(O)C1O (stereo not given)
inactive: [1] > 100 µM | [2] > 100 µM | [4] > 100 µM | [5] > 100 µM | [6] > 100 µM | [7] > 100 µM | [8] > 100 µM | [9] > 100 µM | [12] > 100 µM | [13] > 100 µM | [14] > 100 µM | [15] > 100 µM | [16] > 100 µM | [18] > 100 µM | [19] > 100 µM | [20] > 100 µM | [21] > 100 µM | [22] > 100 µM | [24] > 100 µM | [25] > 100 µM | [27] > 100 µM | [53] > 100 µM | [28] > 100 µM | [29] > 100 µM | [30] > 100 µM | [31] > 100 µM | [32] > 100 µM | [33] > 100 µM | [34] > 100 µM | [35] > 100 µM | [36] > 100 µM | [37] > 100 µM | [38] > 100 µM | [39] > 100 µM | [40] > 100 µM | [54] > 100 µM | [41] > 100 µM | [55] > 100 µM | [43] > 100 µM | [44] > 100 µM | [45] > 100 µM | [56] > 100 µM | [57] > 100 µM | [46] > 100 µM | [47] > 100 µM | [48] > 100 µM | [58] > 100 µM | [49] > 100 µM
> 100 µM: [23]
